Reference: US11078193B2 (priority 2014, dated 2021)
pEC50: −log10 of the molar value.

Tests used:
Format in all cases: cell-based
HBV [1] = assay: anti-HBV activity, HepG2.2.15 stable transfected cell line, HBV DNA from secreted virions by realtime PCR; settings: Hepatitis B virus, 144 h, HepG2.2.15 cells, 6 days of treatment
HBV [2] = assay: anti HBV activity, HepG2.117 inducibly HBV producing cell line (Tet-off), intracellular HBV DNA by realtime PCR; settings: Hepatitis B virus, 72 h, HepG2.117 cells, 3 days of treatment
[3] = Cytotoxicity, HepG2 cells, Resazurin assay; settings: human

SMILES	pEC50 (HBV [1])	pEC50 (HBV [2])	CC50 at 4 days [3] [nM]
Cn1cc(S(=O)(=O)NC2(C)COC2)cc1C(=O)Nc1ccnc(C#N)c1 [Compound 1, N-(2-Cyanopyridin-4-yl)-1-methyl-4-[(3-methyloxetan-3-yl)sulfamoyl]-1H-pyrrole-2-carboxamide]	6.07	6.19	> 25000
Cn1cc(S(=O)(=O)NC2(C)COC2)cc1C(=O)Nc1cncc(C(F)(F)F)c1 [Compound 2, 1-Methyl-4-[(3-methyloxetan-3-yl)sulfamoyl]-N-[5-(trifluoromethyl)pyridin-3-yl]-1H-pyrrole-2-carboxamide]	< 6.00	4.98	> 25000
Cc1cc(NC(=O)c2cc(S(=O)(=O)NC3(C)COC3)cn2C)cnc1F [Compound 3, N-(6-Fluoro-5-methylpyridin-3-yl)-1-methyl-4-[(3-methyloxetan-3-yl)sulfamoyl]-1H-pyrrole-2-carboxamide]	< 6.00	6.12	> 25000
C[C@@H](NS(=O)(=O)c1cn(C)c(C(=O)Nc2ccnc(Br)c2F)c1Cl)C(C)(F)F [Compound 148, N-(2-bromo-3-fluoro-4-pyridyl)-3-chloro-4-[[(1R)-2,2-difluoro-1-methyl-propyl]sulfamoyl]-1-methyl-pyrrole-2-carboxamide]		7.70	> 25000
Cc1cc(NC(=O)c2c(Cl)c(S(=O)(=O)N[C@H](C)C(C)(F)F)cn2C)cc(Cl)n1 [Compound 149, 3-chloro-N-(2-chloro-6-methyl-4-pyridyl)-4-[[(1R)-2,2-difluoro-1-methyl-propyl]sulfamoyl]-1-methyl-pyrrole-2-carboxamide]		7.22	> 25000
C[C@@H](NS(=O)(=O)c1cn(C)c(C(=O)Nc2ccnc(C(F)(F)F)c2)c1Cl)C(C)(F)F [Compound 150, 3-chloro-4-[[(1R)-2,2-difluoro-1-methyl-propyl]sulfamoyl]-1-methyl-N-[2-(trifluoromethyl)-4-pyridyl]pyrrole-2-carboxamide]		7.05	> 25000
C[C@@H](NS(=O)(=O)c1cn(C)c(C(=O)Nc2ccnc(C#N)c2F)c1Cl)C(C)(F)F [Compound 151, 3-chloro-N-(2-cyano-3-fluoro-4-pyridyl)-4-[[(1R)-2,2-difluoro-1-methyl-propyl]sulfamoyl]-1-methyl-pyrrole-2-carboxamide]		7.52	> 25000
C[C@@H](NS(=O)(=O)c1cn(C)c(C(=O)Nc2ccnc(Br)c2F)c1F)C(F)(F)F [Compound 153, N-(2-bromo-3-fluoro-4-pyridyl)-3-fluoro-1-methyl-4-[[(1R)-2,2,2-trifluoro-1-methyl-ethyl]sulfamoyl]pyrrole-2-carboxamide]		7.70	> 25000
C[C@@H](NS(=O)(=O)c1cn(C)c(C(=O)Nc2ccnc(C#N)c2F)c1F)C(F)(F)F [Compound 155, N-(2-cyano-3-fluoro-4-pyridyl)-3-fluoro-1-methyl-4-[[(1R)-2,2,2-trifluoro-1-methyl-ethyl]sulfamoyl]pyrrole-2-carboxamide]		7.70	> 25000
C[C@@H](NS(=O)(=O)c1cn(C)c(C(=O)Nc2ccc(F)c(C#N)n2)c1Cl)C(F)(F)F [Compound 156, 3-chloro-N-(6-cyano-5-fluoro-2-pyridyl)-1-methyl-4-[[(1R)-2,2,2-trifluoro-1-methyl-ethyl]sulfamoyl]pyrrole-2-carboxamide]		6.85	> 25000
Cc1cc(NC(=O)c2c(F)c(S(=O)(=O)N[C@H](C)C(C)(F)F)cn2C)cc(Br)n1 [Compound 157, N-(2-bromo-6-methyl-4-pyridyl)-4-[[(1R)-2,2-difluoro-1-methyl-propyl]sulfamoyl]-3-fluoro-1-methyl-pyrrole-2-carboxamide]		7.05	> 25000
Cn1cc(S(=O)(=O)NC2(C)CC(F)(F)C2)c(Cl)c1C(=O)Nc1ccnc(Br)c1F [Compound 161, N-(2-bromo-3-fluoro-4-pyridyl)-3-chloro-4-[(3,3-difluoro-1-methyl-cyclobutyl)sulfamoyl]-1-methyl-pyrrole-2-carboxamide]		8.00	> 25000
Cc1cc(NC(=O)c2c(Cl)c(S(=O)(=O)NC3(C)CC(F)(F)C3)cn2C)cc(F)n1 [Compound 163, 3-chloro-4-[(3,3-difluoro-1-methyl-cyclobutyl)sulfamoyl]-N-(2-fluoro-6-methyl-4-pyridyl)-1-methyl-pyrrole-2-carboxamide]		7.70	> 25000
Cc1cc(NC(=O)c2c(F)c(S(=O)(=O)NC3(C(F)(F)F)CCC3)cn2C)cc(Br)n1 [Compound 164, N-(2-bromo-6-methyl-4-pyridyl)-3-fluoro-1-methyl-4-[[1-(trifluoromethyl)cyclobutyl]sulfamoyl]pyrrole-2-carboxamide]		7.40	> 25000
Cn1cc(S(=O)(=O)NC2(C(F)(F)F)CCC2)c(F)c1C(=O)Nc1ccnc(C(F)F)c1F [Compound 165, N-[2-(difluoromethyl)-3-fluoro-4-pyridyl]-3-fluoro-1-methyl-4-[[1-(trifluoromethyl)cyclobutyl]sulfamoyl]pyrrole-2-carboxamide]		8.52	> 25000
Cn1cc(S(=O)(=O)NC2(C(F)(F)F)CCC2)c(F)c1C(=O)Nc1ccnc(Br)c1F [Compound 166, N-(2-bromo-3-fluoro-4-pyridyl)-3-fluoro-1-methyl-4-[[1-(trifluoromethyl)cyclobutyl]sulfamoyl]pyrrole-2-carboxamide]		8.52	> 25000
Cn1cc(S(=O)(=O)NC2(C(F)(F)F)CCC2)c(F)c1C(=O)Nc1ccnc(C#N)c1F [Compound 167, N-(2-cyano-3-fluoro-4-pyridyl)-3-fluoro-1-methyl-4-[[1-(trifluoromethyl)cyclobutyl]sulfamoyl]pyrrole-2-carboxamide]		8.30	> 25000
Cn1cc(S(=O)(=O)NC2(C(F)(F)F)CCC2)c(F)c1C(=O)Nc1cc(F)nc(F)c1 [Compound 168, N-(2,6-difluoro-4-pyridyl)-3-fluoro-1-methyl-4-[[1-(trifluoromethyl)cyclobutyl]sulfamoyl]pyrrole-2-carboxamide]		8.22	> 25000
Cn1cc(S(=O)(=O)NC2(C(F)(F)F)CCC2)c(F)c1C(=O)Nc1ccnc(F)c1 [Compound 169, 3-fluoro-N-(2-fluoro-4-pyridyl)-1-methyl-4-[[1-(trifluoromethyl)cyclobutyl]sulfamoyl]pyrrole-2-carboxamide]		7.52	> 25000
Cn1cc(S(=O)(=O)NC2(C(F)(F)F)CCC2)c(F)c1C(=O)Nc1ccnc(F)c1F [Compound 170, N-(2,3-difluoro-4-pyridyl)-3-fluoro-1-methyl-4-[[1-(trifluoromethyl)cyclobutyl]sulfamoyl]pyrrole-2-carboxamide]		7.40	> 25000
Cc1cc(NC(=O)c2c(F)c(S(=O)(=O)NC3(C(F)(F)F)CCC3)cn2C)cc(C#N)n1 [Compound 171, N-(2-cyano-6-methyl-4-pyridyl)-3-fluoro-1-methyl-4-[[1-(trifluoromethyl)cyclobutyl]sulfamoyl]pyrrole-2-carboxamide]		7.00	> 25000
Cc1cc(NC(=O)c2c(F)c(S(=O)(=O)NC3(C(F)(F)F)CCC3)cn2C)cc(C(F)F)n1 [Compound 173, N-[2-(difluoromethyl)-6-methyl-4-pyridyl]-3-fluoro-1-methyl-4-[[1-(trifluoromethyl)cyclobutyl]sulfamoyl]pyrrole-2-carboxamide]		7.70	> 25000
Cn1cc(S(=O)(=O)NC2(C(F)(F)F)CCOCC2)c(Cl)c1C(=O)Nc1ccnc(Cl)c1 [Compound 180, 3-chloro-N-(2-chloro-4-pyridyl)-1-methyl-4-[[4-(trifluoromethyl)tetrahydropyran-4-yl]sulfamoyl]pyrrole-2-carboxamide]		6.20	> 25000
C[C@@H](NS(=O)(=O)c1cn(C)c(C(=O)Nc2ccc(F)c(C#N)n2)c1C#N)C(F)(F)F [Compound 181, 3-cyano-N-(6-cyano-5-fluoro-2-pyridyl)-1-methyl-4-[[(1R)-2,2,2-trifluoro-1-methyl-ethyl]sulfamoyl]pyrrole-2-carboxamide]		6.00	> 25000
C[C@@H](NS(=O)(=O)c1cn(C)c(C(=O)Nc2ccnc(C(C)(F)F)c2)c1Cl)C(F)(F)F [Compound 182, 3-chloro-N-[2-(1,1-difluoroethyl)-4-pyridyl]-1-methyl-4-[[(1R)-2,2,2-trifluoro-1-methyl-ethyl]sulfamoyl]pyrrole-2-carboxamide]		5.89	> 25000
C[C@@H](NS(=O)(=O)c1cn(C)c(C(=O)Nc2cc(C#N)ccn2)c1Cl)C(F)(F)F [Compound 183, 3-chloro-N-(4-cyano-2-pyridyl)-1-methyl-4-[[(1R)-2,2,2-trifluoro-1-methyl-ethyl]sulfamoyl]pyrrole-2-carboxamide]		5.85	> 25000
C[C@@H](NS(=O)(=O)c1cn(C)c(C(=O)Nc2nc(F)c(F)cc2F)c1Cl)C(F)(F)F [Compound 184, 3-chloro-1-methyl-4-[[(1R)-2,2,2-trifluoro-1-methyl-ethyl]sulfamoyl]-N-(3,5,6-trifluoro-2-pyridyl)pyrrole-2-carboxamide]		5.92	> 25000
C[C@@H](NS(=O)(=O)c1cn(C)c(C(=O)Nc2c(Cl)c(F)nc(F)c2Cl)c1Cl)C(F)(F)F [Compound 186, 3-chloro-N-(3,5-dichloro-2,6-difluoro-4-pyridyl)-1-methyl-4-[[(1R)-2,2,2-trifluoro-1-methyl-ethyl]sulfamoyl]pyrrole-2-carboxamide]		4.98	> 25000
C[C@@H](NS(=O)(=O)c1cn(C)c(C(=O)Nc2c(F)c(F)nc(F)c2Cl)c1Cl)C(F)(F)F [Compound 187, 3-chloro-N-(3-chloro-2,5,6-trifluoro-4-pyridyl)-1-methyl-4-[[(1R)-2,2,2-trifluoro-1-methyl-ethyl]sulfamoyl]pyrrole-2-carboxamide]		6.15	> 25000
